Measured values taken from the NIST ThermoML archive (doi:10.1021/je200766t).

Conditions: Liquid, Closed cell (Static) method

OCC(O)CO [glycerol]
Conditions | vapor or sublimation pressure [kPa]
351.8 K | 0.00583
362.02 K | 0.0129
372.06 K | 0.0258
382.08 K | 0.0544
392.18 K | 0.102
402.16 K | 0.18
412.24 K | 0.315
422.28 K | 0.534
432.45 K | 0.981
452.64 K | 2.747
462.86 K | 4.099

OCCCO [propan-1,3-diol]
Conditions | vapor or sublimation pressure [kPa]
313.2 K | 0.0111
323.26 K | 0.026
333.23 K | 0.0574
343.16 K | 0.12
351.33 K | 0.221
361.61 K | 0.43
362.97 K | 0.462
371.65 K | 0.785
381.7 K | 1.395
391.7 K | 2.376
391.73 K | 2.374
401.64 K | 3.883
411.71 K | 6.212
421.69 K | 9.628
431.74 K | 14.62
441.73 K | 21.63
451.78 K | 31.44
461.85 K | 44.81
